Reference: PubChem BioAssay AID248 (DTP/NCI, 2004)
Values joined by “and” are separate entries in the source; they are usually repeats but may differ in a detail not shown here. Equal entries are not always repeated. Inconclusive results and toxic doses are left out. No stated cut-off is given here; in the data, active means T/C of 150% or more; inactive means T/C below 125%.

System: L1210 leukemia ip in BDF1 mice, survival T/C
Experiment: NCI In Vivo Anticancer Drug Screen. Data for tumor model L1210 Leukemia (intraperitoneal) in B6D2F1 (BDF1) mice
Conditions: endpoint: mean survival time, higher = longer survival
Method in brief: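 In this screen, tumor-bearing mice given compound are compared to those given vehicle, and their survival values are reported as a treated-to-control quotient.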

[1] = dose: 25.0 mg/kg/injection, schedule: Q01DX001 (ip), vehicle: saline
[2] = dose: 50.0 mg/kg/injection, schedule: Q01DX001 (ip), vehicle: saline
[3] = dose: 100.0 mg/kg/injection, schedule: Q01DX001 (ip), vehicle: saline
[4] = dose: 200.0 mg/kg/injection, schedule: Q01DX001 (ip), vehicle: saline
[5] = dose: 100.0 mg/kg/injection, schedule: Q01DX009 (ip), vehicle: saline
[6] = dose: 200.0 mg/kg/injection, schedule: Q01DX009 (ip), vehicle: saline
[7] = dose: 400.0 mg/kg/injection, schedule: Q01DX001 (ip), vehicle: saline
[8] = dose: 100.0 mg/kg/injection, schedule: Q04DX002 (ip), vehicle: saline with Tween-80
[9] = dose: 100.0 mg/kg/injection, schedule: Q04DX003 (ip), vehicle: saline with Tween-80
[10] = dose: 200.0 mg/kg/injection, schedule: Q04DX002 (ip), vehicle: saline with Tween-80
[11] = dose: 200.0 mg/kg/injection, schedule: Q04DX003 (ip), vehicle: saline with Tween-80
[12] = dose: 400.0 mg/kg/injection, schedule: Q04DX002 (ip), vehicle: saline with Tween-80
[13] = dose: 50.0 mg/kg/injection, schedule: Q01DX001 (ip), vehicle: carboxymethylcellulose (CMC)
[14] = dose: 100.0 mg/kg/injection, schedule: Q01DX001 (ip), vehicle: carboxymethylcellulose (CMC)
[15] = dose: 200.0 mg/kg/injection, schedule: Q01DX001 (ip), vehicle: carboxymethylcellulose (CMC)
[16] = dose: 400.0 mg/kg/injection, schedule: Q01DX001 (ip), vehicle: carboxymethylcellulose (CMC)
[17] = dose: 50.0 mg/kg/injection, schedule: Q01DX009 (ip), vehicle: saline

Measured: T/C

O=C(Cc1ccccc1)NCc1ccccc1
inactive: [1] 97 % of control | [2] 101 % of control | [3] 104 % of control | [4] 104 % of control

Nc1ccc(Nc2nc3ccccc3s2)c(O)c1
inactive: dose: 75.0 mg/kg/injection, schedule: Q01DX001 (ip), vehicle: saline 104 % of control | dose: 150.0 mg/kg/injection, schedule: Q01DX001 (ip), vehicle: saline 101 % of control | dose: 300.0 mg/kg/injection, schedule: Q01DX001 (ip), vehicle: saline 104 % of control

CCOC1C(=O)c2ccccc2CCN1S(=O)(=O)c1ccc(C)cc1 (stereo not given)
inactive: [3] 96 % of control | [5] 101 % of control | [4] 100 % of control | [6] 95 % of control | [7] 103 % of control | dose: 400.0 mg/kg/injection, schedule: Q01DX009 (ip), vehicle: saline 94 % of control

C/C=C\C=N\NC(=O)CCCCCCCCCCC
inactive: dose: 25.0 mg/kg/injection, schedule: Q01DX009 (ip), vehicle: Klucel (hydroxypropylcellulose) (HPC) 105 % of control | dose: 50.0 mg/kg/injection, schedule: Q01DX009 (ip), vehicle: Klucel (hydroxypropylcellulose) (HPC) 91 % of control | dose: 100.0 mg/kg/injection, schedule: Q01DX009 (ip), vehicle: Klucel (hydroxypropylcellulose) (HPC) 100 % of control and 90 % of control

COC(=O)c1ccccc1NC(=S)NC(=O)C(C)Oc1ccccc1 (stereo not given)
inactive: dose: 100.0 mg/kg/injection, schedule: Q01DX001 (ip), vehicle: saline with Tween-80 111 % of control | dose: 100.0 mg/kg/injection, schedule: Q01DX009 (ip), vehicle: saline with Tween-80 108 % of control and 109 % of control | [8] 96 % of control and 108 % of control | [9] 107 % of control | dose: 200.0 mg/kg/injection, schedule: Q01DX001 (ip), vehicle: saline with Tween-80 95 % of control | dose: 200.0 mg/kg/injection, schedule: Q01DX009 (ip), vehicle: saline with Tween-80 95 % of control and 100 % of control | [10] 98 % of control and 107 % of control | [11] 98 % of control | dose: 400.0 mg/kg/injection, schedule: Q01DX001 (ip), vehicle: saline with Tween-80 98 % of control | dose: 400.0 mg/kg/injection, schedule: Q01DX009 (ip), vehicle: saline with Tween-80 92 % of control | [12] 101 % of control and 104 % of control | dose: 400.0 mg/kg/injection, schedule: Q04DX003 (ip), vehicle: saline with Tween-80 106 % of control

Nc1cc2c(cc1[N+](=O)[O-])-c1ccc([N+](=O)[O-])cc1C2=O
inactive: [13] 98 % of control | [14] 113 % of control | [15] 98 % of control | [16] 109 % of control

NC(=S)N/N=C/c1ccc2ccccc2c1
inactive: [2] 107 % of control | [3] 107 % of control | [4] 107 % of control | [7] 116 % of control

Cc1c(C)c(Br)c(C)c(-c2c(O)c(Br)c(-c3c(C)c(C)c(C)c(Br)c3C)c(O)c2Br)c1C
inactive: [9] 97 % of control | [11] 90 % of control

COc1cc(C)n2nnnc2n1
inactive: [1] 91 % of control | [2] 96 % of control | [3] 96 % of control

CCOC(=O)C(C(=O)OCC)c1nc(=O)[nH]c(=O)[nH]1
inactive: dose: 100.0 mg/kg/injection, schedule: Q01DX Z (ip), vehicle: methylcellulose (MC) 97 % of control

Brc1cccc[n+]1-c1cccc(-c2cccc(-[n+]3ccccc3Br)c2)c1
inactive: dose: 9.38 mg/kg/injection, schedule: Q01DX001 (ip), vehicle: other 100 % of control | dose: 18.75 mg/kg/injection, schedule: Q01DX001 (ip), vehicle: other 101 % of control

CN(C)c1ccc2nc3c(C(=O)O)cc(=O)c(O)c-3oc2c1
inactive: [13] 104 % of control | [14] 101 % of control

Cn1c(=O)c2c(nc(CCCCCCCc3nc4c(c(=O)n(C)c(=O)n4C)n3C)n2C)n(C)c1=O
inactive: [3] 98 % of control | [4] 98 % of control | [7] 98 % of control

Clc1cc(/C=C/c2ccccc2)c2ccccc2n1
inactive: [3] 105 % of control | [4] 105 % of control | [7] 100 % of control

CN(C)N(P(N)(Cl)(c1ccccc1)c1ccccc1)P(N)(Cl)(c1ccccc1)c1ccccc1
inactive: dose: 5.0 mg/kg/injection, schedule: Q01DX001 (ip), vehicle: steriod suspending solution 100 % of control | dose: 10.0 mg/kg/injection, schedule: Q01DX001 (ip), vehicle: steriod suspending solution 105 % of control | dose: 20.0 mg/kg/injection, schedule: Q01DX001 (ip), vehicle: steriod suspending solution 97 % of control | dose: 40.0 mg/kg/injection, schedule: Q01DX001 (ip), vehicle: steriod suspending solution 103 % of control | dose: 80.0 mg/kg/injection, schedule: Q01DX001 (ip), vehicle: steriod suspending solution 94 % of control

ClB(Cl)c1ccccc1
inactive: [3] 92 % of control | [4] 92 % of control | [7] 101 % of control

CCCCCNS(=O)(=O)CCCC
inactive: dose: 100.0 mg/kg/injection, schedule: Q04DX002 (ip), vehicle: other 111 % of control | dose: 200.0 mg/kg/injection, schedule: Q04DX002 (ip), vehicle: other 96 % of control | dose: 400.0 mg/kg/injection, schedule: Q04DX002 (ip), vehicle: other 103 % of control

Cn1c(=O)c2[n-]cnc2n(C)c1=O.Cn1c(=O)c2[n-]cnc2n(C)c1=O.[Pt+2]
inactive: dose: 25.0 mg/kg/injection, schedule: Q04DX003 (ip), vehicle: saline with Tween-80 102 % of control | dose: 50.0 mg/kg/injection, schedule: Q04DX003 (ip), vehicle: saline with Tween-80 98 % of control | [9] 98 % of control

CCOc1ccc(N=Cc2ccc(OC(=O)c3ccccc3)c(OC)c2)cc1
inactive: [8] 102 % of control | [10] 95 % of control | [12] 113 % of control

c1ccc(C[N+]23CC[N+](Cc4ccccc4)(CC2)CC3)cc1
inactive: [17] 107 % of control | [5] 111 % of control | dose: 100.0 mg/kg/injection, schedule: Q04DX003 (ip), vehicle: saline 97 % of control | [6] 114 % of control | dose: 200.0 mg/kg/injection, schedule: Q04DX003 (ip), vehicle: saline 100 % of control

NC(CSC(c1ccccc1)(c1ccccc1)c1ccc(-c2ccccc2)cc1)C(=O)O (stereo not given)
inactive: dose: 12.5 mg/kg/injection, schedule: Q01DX009 (ip), vehicle: saline 103 % of control | dose: 25.0 mg/kg/injection, schedule: Q01DX009 (ip), vehicle: saline 104 % of control | [17] 107 % of control

O=C(O)CC(C(=O)O)=C1CCCCC1
inactive: [17] 98 % of control | [5] 98 % of control | [6] 100 % of control

C1N2CN3CN1CN(C2)C3
inactive: [13] 104 % of control | [14] 104 % of control | dose: 100.0 mg/kg/injection, schedule: Q04DX002 (ip), vehicle: saline 100 % of control | [15] 112 % of control | dose: 200.0 mg/kg/injection, schedule: Q04DX002 (ip), vehicle: saline 100 % of control | [16] 101 % of control | dose: 400.0 mg/kg/injection, schedule: Q04DX002 (ip), vehicle: saline 114 % of control

O=C(NCCCO)C1C(c2ccccc2)C1c1ccccc1 (stereo not given)
inactive: [8] 108 % of control | [10] 102 % of control | [12] 102 % of control
